Data as given in ChEMBL document CHEMBL3885881, “DrugMatrix”.

Species: Rattus norvegicus
Test: DrugMatrix - Regimen: Daily Repeat
Assay type: toxicity, organism-based, Sprague-Dawley
Set-up: regimen Daily Repeat, gender Male, age 6-8 weeks
Conditions: in vivo, po, route oral GAVAGE, vehicle 100 % SALINE; for ABSOLUTE BASOPHIL / ABSOLUTE EOSINOPHIL / ABSOLUTE LYMPHOCYTE / ABSOLUTE MONOCYTE / ABSOLUTE SEGMENTED NEUTROPHIL / BASOPHIL / EOSINOPHIL / ERYTHROCYTE COUNT / HEMATOCRIT / HEMOGLOBIN / LEUKOCYTE COUNT / LYMPHOCYTE / MEAN CORPUSCULAR HEMOGLOBIN / MEAN CORPUSCULAR HEMOGLOBIN CONCENTRATION / MEAN CORPUSCULAR VOLUME / MONOCYTE / NEUTROPHIL / NUCLEATED RED BLOOD CELLS / PLATELET COUNT: tissue Blood; for ALANINE AMINOTRANSFERASE / ALBUMIN / ALKALINE PHOSPHATASE / ASPARTATE AMINOTRANSFERASE / BLOOD UREA NITROGEN / CARBON DIOXIDE / CHLORIDE / CHOLESTEROL / CREATINE PHOSPHOKINASE / CREATININE / GLUCOSE / LACTATE DEHYDROGENASE / LIPASE / PHOSPHORUS / POTASSIUM / SODIUM / TOTAL BILIRUBIN / TOTAL PROTEIN / URIC ACID: tissue Plasma
[1] = 0 mg/kg, 72 h, dose level Control, time 3 day
[2] = 0 mg/kg, […], dose level Control, time 7 day
[3] = 3000 mg/kg, 72 h, dose level Low, time 3 day

With `CCO` [ALCOHOL] the “ABSOLUTE BASOPHIL” value [1] was 0 CELLS/uL, the “ABSOLUTE EOSINOPHIL” value [1] was 66 CELLS/uL and the “ABSOLUTE LYMPHOCYTE” value [1] was 11922.83 CELLS/uL. The “ABSOLUTE MONOCYTE” value [1] was 401.5 CELLS/uL, the “ABSOLUTE SEGMENTED NEUTROPHIL” value [1] was 1526.33 CELLS/uL and the BASOPHIL [1] was 0%. For the same compound, the EOSINOPHIL [1] was 0.5%, the “ERYTHROCYTE COUNT” value [1] was 5.62 x10E6/uL and the HEMATOCRIT [1] was 37.17%. The HEMOGLOBIN [1] was 13.53 G/DL, the “LEUKOCYTE COUNT” value [1] was 13.92 x10E3/uL and the LYMPHOCYTE [1] was 86.17%. For the same compound, the “MEAN CORPUSCULAR HEMOGLOBIN” value [1] was 24.07 pg, the “MEAN CORPUSCULAR HEMOGLOBIN CONCENTRATION” value [1] was 36.42 G/DL and the “MEAN CORPUSCULAR VOLUME” value [1] was 66.1 fL. The MONOCYTE [1] was 3%, the NEUTROPHIL [1] was 10.33% and the “NUCLEATED RED BLOOD CELLS” value [1] was 0 /100WBC. The “PLATELET COUNT” value [1] was 1107 x10E3/uL, the “ALANINE AMINOTRANSFERASE” value [1] was 45.33 u/L and the ALBUMIN [1] was 4.3 G/DL. For the same compound, the “ALKALINE PHOSPHATASE” value [1] was 321.33 u/L, the “ASPARTATE AMINOTRANSFERASE” value [1] was 77.33 u/L and the “BLOOD UREA NITROGEN” value [1] was 14.33 mg/dL. For the same compound, the “CARBON DIOXIDE” value [1] was 32.33 mmol/L, the CHLORIDE [1] was 99.67 MEQ/L and the CHOLESTEROL [1] was 82.33 mg/dL. The “CREATINE PHOSPHOKINASE” value [1] was 205.5 u/L, the CREATININE [1] was 0.19 mg/dL and the GLUCOSE [1] was 150.83 mg/dL. The “LACTATE DEHYDROGENASE” value [1] was 88.17 u/L, the LIPASE [1] was 10.83 u/L and the PHOSPHORUS [1] was 10.9 mg/dL. The POTASSIUM [1] was 5.83 MEQ/L, the SODIUM [1] was 145.15 MEQ/L and the “TOTAL BILIRUBIN” value [1] was 0.12 mg/dL. The “TOTAL PROTEIN” value [1] was 6.22 G/DL, the “URIC ACID” value [1] was 1 mg/dL and the “ABSOLUTE BASOPHIL” value [2] was 0 CELLS/uL. For the same compound, the “ABSOLUTE EOSINOPHIL” value [2] was 22 CELLS/uL, the “ABSOLUTE LYMPHOCYTE” value [2] was 11105.17 CELLS/uL and the “ABSOLUTE MONOCYTE” value [2] was 258.17 CELLS/uL. For the same compound, the “ABSOLUTE SEGMENTED NEUTROPHIL” value [2] was 881.33 CELLS/uL, the BASOPHIL [2] was 0% and the EOSINOPHIL [2] was 0.17%. The “ERYTHROCYTE COUNT” value [2] was 5.29 x10E6/uL, the HEMATOCRIT [2] was 34.03% and the HEMOGLOBIN [2] was 13.67 G/DL. The “LEUKOCYTE COUNT” value [2] was 12.27 x10E3/uL, the LYMPHOCYTE [2] was 90.83% and the “MEAN CORPUSCULAR HEMOGLOBIN” value [2] was 25.9 pg. For the same compound, the “MEAN CORPUSCULAR HEMOGLOBIN CONCENTRATION” value [2] was 40.18 G/DL, the “MEAN CORPUSCULAR VOLUME” value [2] was 64.42 fL and the MONOCYTE [2] was 2.17%. The NEUTROPHIL [2] was 6.83%, the “NUCLEATED RED BLOOD CELLS” value [2] was 0 /100WBC and the “PLATELET COUNT” value [2] was 1159.83 x10E3/uL. For the same compound, the “ALANINE AMINOTRANSFERASE” value [2] was 45.83 u/L, the ALBUMIN [2] was 4.1 G/DL and the “ALKALINE PHOSPHATASE” value [2] was 240 u/L. For the same compound, the “ASPARTATE AMINOTRANSFERASE” value [2] was 88.67 u/L, the “BLOOD UREA NITROGEN” value [2] was 13.67 mg/dL and the “CARBON DIOXIDE” value [2] was 31.83 mmol/L. The CHLORIDE [2] was 96.83 MEQ/L, the CHOLESTEROL [2] was 71.17 mg/dL and the “CREATINE PHOSPHOKINASE” value [2] was 202.5 u/L. The CREATININE [2] was 0.22 mg/dL, the GLUCOSE [2] was 132.67 mg/dL and the “LACTATE DEHYDROGENASE” value [2] was 107.17 u/L. The LIPASE [2] was 10.5 u/L, the PHOSPHORUS [2] was 10.47 mg/dL and the POTASSIUM [2] was 6.23 MEQ/L. For the same compound, the SODIUM [2] was 140.73 MEQ/L, the “TOTAL BILIRUBIN” value [2] was 0.12 mg/dL and the “TOTAL PROTEIN” value [2] was 6.18 G/DL. For the same compound, the “URIC ACID” value [2] was 0.87 mg/dL, the “ABSOLUTE BASOPHIL” value [3] was 0 CELLS/uL and the “ABSOLUTE EOSINOPHIL” value [3] was 0 CELLS/uL. The “ABSOLUTE LYMPHOCYTE” value [3] was 9478 CELLS/uL, the “ABSOLUTE MONOCYTE” value [3] was 154.17 CELLS/uL and the “ABSOLUTE SEGMENTED NEUTROPHIL” value [3] was 701.17 CELLS/uL. The BASOPHIL [3] was 0%, the EOSINOPHIL [3] was 0% and the “ERYTHROCYTE COUNT” value [3] was 5.61 x10E6/uL. The HEMATOCRIT [3] was 37.43%, the HEMOGLOBIN [3] was 13.38 G/DL and the “LEUKOCYTE COUNT” value [3] was 10.33 x10E3/uL. For the same compound, the LYMPHOCYTE [3] was 91.5%, the “MEAN CORPUSCULAR HEMOGLOBIN” value [3] was 23.87 pg and the “MEAN CORPUSCULAR HEMOGLOBIN CONCENTRATION” value [3] was 35.78 G/DL. For the same compound, the “MEAN CORPUSCULAR VOLUME” value [3] was 66.65 fL, the MONOCYTE [3] was 1.5% and the NEUTROPHIL [3] was 7%. The “NUCLEATED RED BLOOD CELLS” value [3] was 0 /100WBC, the “PLATELET COUNT” value [3] was 1014.67 x10E3/uL and the “ALANINE AMINOTRANSFERASE” value [3] was 55.33 u/L. For the same compound, the ALBUMIN [3] was 4.22 G/DL, the “ALKALINE PHOSPHATASE” value [3] was 351.5 u/L and the “ASPARTATE AMINOTRANSFERASE” value [3] was 80.33 u/L. The “BLOOD UREA NITROGEN” value [3] was 10.17 mg/dL, the “CARBON DIOXIDE” value [3] was 30.17 mmol/L and the CHLORIDE [3] was 99.8 MEQ/L. The CHOLESTEROL [3] was 73.17 mg/dL, the “CREATINE PHOSPHOKINASE” value [3] was 216.33 u/L and the CREATININE [3] was 0.24 mg/dL. For the same compound, the GLUCOSE [3] was 152.67 mg/dL, the “LACTATE DEHYDROGENASE” value [3] was 102.83 u/L and the LIPASE [3] was 8.17 u/L. For the same compound, the PHOSPHORUS [3] was 10.45 mg/dL, the POTASSIUM [3] was 5.55 MEQ/L and the SODIUM [3] was 144.46 MEQ/L. The “TOTAL BILIRUBIN” value [3] was 0.1 mg/dL, the “TOTAL PROTEIN” value [3] was 6.13 G/DL and the “URIC ACID” value [3] was 0.87 mg/dL.
